What is called IC50 is the point on the concentration scale where inhibition reaches its midpoint.

The values that follow come from publication PMC10376691, “Inhibition of Acetylcholinesterase and Amyloid-β Aggregation by Piceatannol and Analogs: Assessing In Vitro and In Vivo Impact on a Murine Model of Scopolamine-Induced Memory Impairment” (Antioxidants, 2023).

The nature of test [1]: DPPH radical scavenging activity. As for the experimental part: DPPH radical scavenging activity was assayed following a previous report, with some modifications. […] DMSO was used instead of a sample solution in the blank group. […] The scavenging activity of the DPPH radical (%) was calculated with the following equation: (△A515blank − △A515sample) ÷ △A515blank × 100%. The IC50 of the DPPH radical scavenging activity of PIC and its analogs or that of Trolox was calculated from each linear equation by three test concentrations and their radical scavenging activities.
Background: Loss of DPPH colour is used to gauge radical scavenging.

The next test addresses T1, Aβ peptide (1–42) (Homo sapiens, UniProt P05067).
T1 construct: The Aβ peptide (1–42) was synthesized and purchased from Kelowna International Scientific Inc; purchased Kelowna International Scientific Inc. (New Taipei, Taiwan); host or cells: chemical synthesis
Briefly: biochemical. On the procedure:
To prepare the 10 μM Aβ peptide working solution, commercial Aβ peptide was first weighted and dissolved in HFIP to 1 mM. Next, the solvent was evaporated in a hood and then re-dissolved using 100 μL of 60 mM NaOH. It was then diluted to 10 μM working solutions with 50 mM phosphate buffer (pH 7.4, containing 150 mM sodium chloride and 1 mM EDTA), following previous reports. […] DMSO instead of the sample solution was used as the control. The 50 mM phosphate buffer was used instead of the Aβ working solution as the sample blank. […] The IC50 of the inhibition against the Aβ aggregation of PIC and its analogs was calculated from each linear equation using three test concentrations and their inhibition capacities.

The subject of a further test is SH-SY5Y cells. Briefly: Neuroprotection against Aβ peptide (25–35)-induced cell deaths (MTT). Conditions: pre-treatment 1, 2 and 10 μM for 24 h, then 40 μg/mL Aβ (25–35) 24 h; vs control p < 0.05. The class given is cell-based, human. On the procedure:
The human SH-SY5Y neuroblastoma cell lines (CRL-2266, Lot No. 58979771) were purchased from American Type Culture Collection (Manassas, VA, USA) and used as models to investigate PIC and its analogs for neuroprotective activities against Aβ-induced cell deaths and the stimulation of neurite outgrowths. The SH-SY5Y cells were grown in DMEM/F-12 medium supplemented with 10% FBS at 37 °C under a humidified atmosphere and 5% CO2 [41]. […]. The SH-SY5Y cells (10,000 cells/well) were seeded and cultured in a DMEM/F-12 medium containing 10% FBS for 24 h at 37 °C under a humidified atmosphere and 5% CO2. […] The medium was then removed, and 40 μg/mL Aβ peptide (25–35) (dissolved in PBS) or an equal aliquot of PBS was added to the medium for another 24 h culture. The MTT was used to evaluate cell viability, and the absorbance at 570 nm was determined. The DMSO used instead of the sample solution was blank (recognized as 100%), and each treatment was expressed as relative cell viability (%). To study the stimulation of neurite outgrowth, the SH-SY5Y cells (5000 cells/well) were seeded on a 96-well plate pre-coated with poly-L-lysine and then cultured in the DMEM/F-12 medium containing 10% FBS overnight at 37 °C under a humidified atmosphere and 5% CO2. After being removed from the culture medium, each PIC, GNT, RHA, and isoRHA (at a final concentration of 10 μM in the 0.1%DMSO) or 0.1% DMSO (the control) was added to the DMEM/F-12 medium containing 10% FBS and refreshed every three days. On day 3 and day 6, each of the culture plates was photographed using an inverted microscope (ECLIPSE TS100, Nikon Instruments Inc., Tokyo, Japan). The culture medium was removed and washed with PBS, and the cultured cells in each well were fixed with 4% paraformaldehyde. To measure cell viability and quantify the neurite outgrowths of the treated SH-SY5Y in a 96-well plate, the neurite outgrowth staining kit (a two-color fluorescence assay kit) was used, following a previous report or the protocol in the manufacturer’s manual (publication number: MAN0007224), which included a cell membrane-stained fluorescent dye (orange-red fluorescence), a cell viability indicator (green fluorescence), and a reagent for background masking. The fluorescence ratios of Ex555nm/Em565nm and Ex495nm/Em515nm were determined for the neurite outgrowths and the cell viabilities, respectively. The value for the control was recognized as 100%, and each treatment was expressed relative to the control.

The target of test [2] is T2, mouse AChE activity in the brain extracts (Mus musculus, UniProt P21836).
T2 construct: The protein content of the whole brain extracts from the mice was quantified using the BCA protein kit; from tissue; host or cells: whole brain extract of scopolamine-induced ICR mice
T2 sequence (P21836 32-614): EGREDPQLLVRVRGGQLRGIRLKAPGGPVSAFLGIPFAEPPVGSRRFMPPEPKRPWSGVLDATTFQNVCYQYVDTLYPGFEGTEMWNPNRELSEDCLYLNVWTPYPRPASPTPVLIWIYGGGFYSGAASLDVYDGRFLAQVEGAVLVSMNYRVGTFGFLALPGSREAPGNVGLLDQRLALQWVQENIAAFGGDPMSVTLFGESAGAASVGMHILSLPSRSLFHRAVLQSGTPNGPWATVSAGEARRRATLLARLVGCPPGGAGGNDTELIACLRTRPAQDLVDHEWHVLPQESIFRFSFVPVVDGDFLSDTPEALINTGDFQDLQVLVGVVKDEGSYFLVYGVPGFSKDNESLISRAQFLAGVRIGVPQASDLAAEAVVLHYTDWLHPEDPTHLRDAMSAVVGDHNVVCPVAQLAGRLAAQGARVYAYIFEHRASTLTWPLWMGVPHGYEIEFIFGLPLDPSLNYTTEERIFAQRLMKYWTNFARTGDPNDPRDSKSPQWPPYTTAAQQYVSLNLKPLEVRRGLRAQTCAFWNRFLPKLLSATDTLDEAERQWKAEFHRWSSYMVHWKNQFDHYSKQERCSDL
Briefly: AChE activity in brain extracts of scopolamine-induced ICR mice. The class given is in vivo. To be noted: PIC 50 mg/kg, donepezil 5 mg/kg oral; vs control p < 0.05.
Procedure: The AChE activities in the mouse brain tissue extract were assayed following the method in Section 2.3, with some modifications. The protein content of the whole brain extracts from the mice was quantified using the BCA protein kit, with bovine serum albumin as the standard protein.

Test [3] deals with mouse brain microvascular endothelial cell models. To be noted: lipopolysaccharide-induced inflammation and oxidative stress; cited from earlier work.
In test [4] the test system is LPS-treated Swiss albino mice. Conditions: 6-day treatment 2.5 mg/kg/day, LPS 0.8 mg/kg i.p.; cited from earlier work.
The subject of a further test is db/db mice. To be noted: oral 50 mg/kg for 2–3 weeks; cited from earlier work.

T1 sequence (P05067 672-713): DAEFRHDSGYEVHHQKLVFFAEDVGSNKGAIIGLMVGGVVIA

For the compound `Oc1cc(O)cc(C=Cc2ccc(O)c(O)c2)c1` [PIC, 3,5,3′,4′-tetrahydroxystilbene], the IC50 in test [1] (120 μM DPPH in methanol, 37 °C, 20 min) turned out to be 40.2 µM. The “DPPH scavenging capacity, fold higher than that of RSV” value in test [1] (ratio of IC50, vs RSV) stood at 2.5 fold. The “DPPH scavenging capacity, fold higher than that of Trolox” value in test [1] (ratio of IC50, vs Trolox) worked out at 2.07 fold. The same compound displayed an IC50 on Aβ peptide (1–42) of 480 nM. The “anti-Aβ aggregation capacity, fold higher than that of RSV” value on Aβ peptide (1–42) (vs RSV) was found to be 2.94 fold. Further, the “neuroprotection: cell viability against Aβ peptide (25–35)-induced cell deaths” value with SH-SY5Y cells is reported as “elevated cell viabilities”. Further, the “AChE activity in the brain extracts” value in test [2] is recorded as “reductions in AChE activities”. Also, the BBB integrity entry in test [3] was “protect BBB integrity”. Besides, in test [4], the “Aβ levels in brain extracts” value was “reduce Aβ levels in brain extracts”; the “learning and memory functions” value was “ameliorate”. For the same compound, in the test with db/db mice, the blood glucose levels result was “reduce blood glucose levels”.
